How the values were obtained:
mouse = conditions: equivalent of mouse LD10; ref EORTC-NDDO, 1992; cited from earlier work
[1] = system: tumour cells cultured in vitro; parameters: method as in Li et al, 1992; conditions: compared with adozelesin; ref Li et al, 1992; cited from earlier work
solid tumours = test: Antitumour activity (WHO response criteria); assay type: in vivo, human; conditions: 51 patients, eight not evaluable
From the text: Carzelesin (U-80,244, Figure 1A) is a cyclopropylpyrroloindole (CPI) prodrug analogue of CC-1065. […] CPI drugs are a class of compounds with unique DNA interactive properties. These agents fit into the minor groove region of DNA, and the CPI function in the molecule mediates a covalent binding to the N3 position of adenine in A-T rich regions, thus forming DNA adducts in a sequence selective fashion (Hurley et al, 1984; Reynolds et al, 1985). Three new CPIs have now been developed. […] Bizelesin differs from the classical CPI drugs in that it contains two chloromethyl functions, which are both converted (via intramolecular rearrangements) to the CPI alkyl- ating species that interact with DNA. Consequently, this agent is capable of forming DNA interstrand cross-links (Lee et al, 1991). […] Therefore, efforts were directed to modu- late the alkylation rate by the preparation of CPI prodrugs that would require chemical or enzymatic conversion. The activation of Carzelesin is a two-step reaction with hydrolysis of the phenyl- urethane substituent to form the intermediate compound U-76,073, followed by ring closure to form the active product U-76,074 (Figure 1B). […] The concentration of U-76,074 (active metabolite) extended above the lower limit of quantitation (1 ng ml-1) for short periods of time and only at the higher dose levels. […]

## CCN(CC)c1ccc2cc(C(=O)Nc3ccc4[nH]c(C(=O)N5C[C@@H](CCl)c6c5cc(OC(=O)Nc5ccccc5)c5[nH]cc(C)c65)cc4c3)oc2c1 [Carzelesin]
mouse
  MELD10: 840 g m-2
[1]
  potency against tumour cells cultured in vitro: less potent than adozelesin
Solid tumours
  patients with progressive disease as best overall response: Thirty-four patients
  patients with stable disease as best overall response: nine patients

Reference: PMC2362731, “Phase I study of Carzelesin (U-80,244) given (4-weekly) by intravenous bolus schedule” (British Journal of Cancer, 1999)
